Data from patent publication US9555023B2, “Pharmaceutical salts and polymorphs of a factor Xa inhibitor” (Millennium Pharmaceuticals, Inc., priority 2005, dated 2017).
Like-named read-outs stand apart in the source and are kept apart here. Values belong to the compound of their own block, whether it stands above or below them.

Tests used:
[1] = Stability: hydrolyzed amidine content by HPLC after 57° C. / 75% humidity; format: physicochemical; conditions: for Hydrolyzed Amidine Content (3 days) / Hydrolyzed Amidine Content (6 days) / Hydrolyzed Amidine Content (10 days): 57° C., 75% room humidity, percentage of the main peak
Method: To assess the thermal and hydrolytic stability of the salt, tests known to those of skill in the art are performed.
The sample solvent was methanol and a mobile phase modifier of 0.1% trifluoroacetic acid was employed. Data were collected after 3, 6 and 10 days except data for the propionate was collected at 0, 3, and 8 days. […] All other impurity peaks were disregarded in the calculation

[2] = Secondary screen: crystallinity (XRPD); format: physicochemical; conditions: for Crystallinity: secondary screen, Table 5
Method: X-Ray Powder Diffraction patterns were collected on a Siemens D5000 diffractometer using CuKα radiation (40 kV, 40 mA), […], automatic divergence and receiving slits, a graphite secondary monochromator and a scintillation counter.
Samples run under ambient conditions were prepared as flat plate specimens using powder. Approximately 35 mg of the sample was gently packed into a cavity cut into polished, zero-background (510) silicon wafer. The sample was rotated in its own plane during analysis. The details of the data collection are given for the method in Table 2 below: […]

[3] = Primary salt screen (purity, crystallinity and stability of precipitated salts); conditions: 20 mg free base in 10% (aq.) THF, 1.1 eq. acid in ethanol, tert-butyl methyl ether to induce precipitation
Method: To 20 mg of the free base in 3 mL of 10% (aq.) THF mixture was added 1.1 eq. of the acid in 1 mL ethanol. The mixture was shaken for 2 hours, followed by the addition of 2 mL of tert-butyl methyl ether in order to induce precipitation and shaken for another 2 hours. The samples were then filtered, dried and then analyzed to judge their purity, crystallinity and stability.

[4] = Gravimetric vapour sorption (GVS) water sorption; format: physicochemical; conditions: GVS isotherm, XRPD post GVS
Method: All samples were run on a Hiden IGASorp moisture sorption analyzer running CFRSorp software. Sample sizes were typically 10 mg. A moisture adsorption desorption isotherm was performed as outlined below (2 scans giving 1 complete cycle). All samples were loaded/unloaded at typical room humidity and temperature (40% RH, 25° C.). All samples were analyzed by XRPD post GVS analysis. The standard isotherm was performed at 25° C. at 10% RH intervals over a 0-90% RH range.

[5] = Solubility in water by HPLC; format: physicochemical
Method: This was measured by suspending enough salt in 0.25 mL of solvent (water) to give a maximum final concentration of ≧10 mg/mL of the parent free form of the salt. The suspension was equilibrated at 25° C. for 24 hr followed by a pH check and filtration through a glass fibre C 96 well plate. The filtrate was then diluted down 101×. Quantitation was by HPLC with reference to a standard dissolved in DMSO at approx 0.1 mg/mL. Different volumes of the standard, diluted and undiluted tests were injected. […] If there was sufficient solid in the filter plate the XRPD was normally checked for phase changes, hydrate formation, amorphization, crystallization, etc.

[6] = Log P determination by potentiometric titration (Sirius GlpKa); format: physicochemical; conditions: Octanol:ISA water
Excerpt: This was by potentiometric titration on a Sirius GlpKa instrument using three ratios of Octanol:ISA water to generate Log P, Log Pion, and Log D values. The data was refined using Refinement Pro software version 1.0. Predictions of Log P were made using ACD Ver. 8.08 and Syracuse KNOWWIN Ver. 1.67 software.

factor Xa = factor Xa (Homo sapiens, UniProt P00742); conditions: cited from earlier work
factor Xa, sequence (P00742 235-488 limits assumed): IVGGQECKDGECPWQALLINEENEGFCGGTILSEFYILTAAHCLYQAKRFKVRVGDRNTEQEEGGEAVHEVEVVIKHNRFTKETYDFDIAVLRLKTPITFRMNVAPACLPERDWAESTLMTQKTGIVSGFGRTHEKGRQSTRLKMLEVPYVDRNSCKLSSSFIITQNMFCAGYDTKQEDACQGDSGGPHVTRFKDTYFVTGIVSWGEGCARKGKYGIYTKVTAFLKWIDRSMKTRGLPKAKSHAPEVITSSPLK
factor Xa, sequence (P00742 41-179 partner limits assumed): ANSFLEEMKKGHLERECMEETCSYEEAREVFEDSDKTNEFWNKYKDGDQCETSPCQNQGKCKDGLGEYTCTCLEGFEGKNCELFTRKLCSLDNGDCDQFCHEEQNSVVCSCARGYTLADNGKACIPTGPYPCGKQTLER

Compound: CC(=O)O [Acetate]
thermal and hydrolytic stability (in words) [1]: did not possess good thermal and hydrolytic stability
Hydrolyzed Amidine Content (3 days) [1]: 0.62-1.11%
Hydrolyzed Amidine Content (6 days) [1]: 2.30-3.56%
Hydrolyzed Amidine Content (10 days) [1]: 3.61-7.90%
crystallinity (in words) [2]: good crystallinity
Crystallinity [2]: crystalline

Compound: Cl [Hydrochloric]
Salt (primary screen grade: purity, crystallinity and stability) [3]: +++
Crystallinity [2]: amorphous

Compound: COc1ccc(NC(=O)c2ccc(C(=N)N(C)C)cc2)c(C(=O)Nc2ccc(Cl)cn2)c1 [Maleate]
moisture stability [4]: excellent moisture stability
thermal and hydrolytic stability (in words) ([1]; listed as maleate salt): best stability observed
thermal and hydrolytic stability (in words) ([1]; listed as maleate salt of Formula II): excellent
solubility at 24 h ([5]; thermodynamic from solid, water, 25° C., 24 hr, as parent free form): 2050 to 2270 µg/mL
Measured LogPion [6]: −0.08
logD ([6]; read-out: Measured LogD): 0.09
logP ([6]; read-out: Measured LogP): 3.09

Compound: Adipic
Salt (primary screen grade: purity, crystallinity and stability) [3]: ++

Continued, in another order:

Salt (primary screen grade: purity, crystallinity and stability) [3]: −
Compound: O=C(O)CC(=O)O [Malonic]

Salt (primary screen grade: purity, crystallinity and stability) [3]: +
Compound: O=S(=O)(O)c1cccc2c(S(=O)(=O)O)cccc12 [Naphthalene-1,5-disulfonic]

Salt (primary screen grade: purity, crystallinity and stability) [3]: +++
Crystallinity [2]: amorphous
Compound: O=C(O)CCC(=O)O [Succinic]

solubility (in words) [5]: did not exhibit optimum solubility
Compound: COc1ccc(NC(=O)c2ccc(C(=N)N(C)C)cc2)c(C(=O)Nc2ccc(Cl)cn2)c1 [compound of Formula I]
factor Xa inhibition (in words) (factor Xa): potent factor Xa inhibitor

Salt (primary screen grade: purity, crystallinity and stability) [3]: +++
Hydrolyzed Amidine Content (3 days) [1]: 2.22%
Hydrolyzed Amidine Content (6 days) [1]: 2.97%
Hydrolyzed Amidine Content (10 days) [1]: 1.71%
Crystallinity [2]: crystalline
Compound: Propionic
